Each block holds one compound with its values, some of them ahead of it.
What was measured:
IgE = settings: reference 20; cited from earlier work
NF-κB = assay: RWPE single-challenge model after intranasal NF-κB inhibitor; format: in vivo; settings: WT mice; intranasal 1 hour before RWPE; BAY 11-7082 10 mg/kg, NEMO-binding domain binding peptide 25 per mouse; 16 hours
Experimental: WT mice were intranasally challenged with a single dose of RWPE or CDE (100 μg/60 μL) and euthanized after 16 hours. In additional experiments, 1 hour before RWPE challenge, WT mice were treated with or without intranasal administration of a nuclear factor κB (NF-κB) inhibitor that selectively irreversibly blocks IκBα phosphorylation with BAY 11-7082 (10 mg/kg body weight; Calbiochem, San Diego, Calif.) (13) or NEMO-binding domain binding peptide (25 per mouse, Calbiochem) (14). These treated mice were challenged with RWPE and euthanized, as described above. Total and differential bronchoalveolar lavage fluid (BALF) cell counts were performed (16). Lungs were perfused and fixed with Zn fixative (BD Biosciences, San Jose, Calif.), and sections were stained with periodic acid-Schiff for mucus staining.

CXCR2 [1] = target: T1, CXCR2 (Mus musculus, UniProt P35343); assay: Ex vivo superoxide generation from BALF cells after RWPE challenge; format: in vivo; settings: WT mice; 4 mg/kg intranasal 1 hour before RWPE; 16 hours after RWPE challenge
T1 construct: endogenous in cells; host or cells: wild-type mice in vivo (receptor on neutrophils)
T1 sequence (P35343 1-359): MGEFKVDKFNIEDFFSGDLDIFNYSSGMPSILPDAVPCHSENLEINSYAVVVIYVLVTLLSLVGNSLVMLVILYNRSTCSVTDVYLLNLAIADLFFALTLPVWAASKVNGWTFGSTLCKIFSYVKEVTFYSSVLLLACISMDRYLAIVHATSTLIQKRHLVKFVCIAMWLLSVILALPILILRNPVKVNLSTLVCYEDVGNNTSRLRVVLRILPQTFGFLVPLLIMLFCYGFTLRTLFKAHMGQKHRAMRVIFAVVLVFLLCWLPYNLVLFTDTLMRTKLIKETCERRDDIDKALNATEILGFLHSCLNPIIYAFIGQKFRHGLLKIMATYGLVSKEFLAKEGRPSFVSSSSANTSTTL
Experimental: WT mice and Tlr4 KO mice were challenged with 100 μg of RWPE or PBS and sacrificed at 0.5 and 16 hours. Ex vivo superoxide generation by BALF cells was measured by a mixture of two probes to optimize sensitivity of detection of superoxide (luminol and Diogenes) (Yamazaki et al., Trop Med Health 2011; 39(2):41-45). In additional experiments, WT mice with intranasal administration of the CXCR2 inhibitor SB225002 (4 mg/kg body weight) 1 hour before RWPE challenge, and ex vivo superoxide generation from cells in BALF was quantified.

CXCR2 [2] = target: T1, CXCR2; assay: RWPE repeated-challenge model with CXCR2 inhibitor; format: in vivo; settings: WT mice
Experimental: WT mice or Tlr4 KO mice were sensitized by five intranasal doses of RWPE (100 μg/60 μl) on Days 0, 1, 2, 3, and 4. These mice were challenged with intranasal RWPE or PBS on Day 11 and killed on Day 14 (14). In addition, WT mice were sensitized by five intranasal doses of RWPE on Days 0, 1, 2, 3, and 4 with RWPE with or without the intranasal administration of 4 mg/kg body weight SB225002 (16) 1 hour before each intranasal dose of RWPE. The mice were challenged with intranasal RWPE on Day 11 and killed on Day 14 (14). In some experiments, Tlr4 KO mice were sensitized by five intranasal doses of RWPE on Days 0, 1, 2, 3, and 4 in the presence or absence of X+XO and challenged with intranasal RWPE in the presence or absence of X+XO on Day 11 and killed on Day 14 as described above (14). In some experiments, RWPE and negatively selected neutrophils derived from bone marrow of donor mice were repeatedly intranasally instilled in Tlr4 KO mice. The purity of neutrophils was assessed to be 99% by FACS. Tlr4 KO mice were intranasally administered neutrophils (4×10^6 neutrophils per mouse) 8 hours after intranasal instillation of RWPE on Days 0, 1, 2, 3, 4, and 11 and killed on Day 14 as described previously to evaluate allergic inflammation.
(§1) Bronchoalveolar lavage fluid (BALF) and histological examinations including PAS staining for mucin were performed as described previously (Sur et al., J Immunol 1996; 157(9):4173-4180). In some experiments, leukotriene B4 (LTB4), CXCL1/2, IL-5, IL-13, TSLP, and IL-33 in BALF were assayed using ELISA kits (R&D Systems, Minneapolis, Minn.)
Mucin production was assessed by two investigators who were blinded to the treatment groups using a modification of a method reported (Wild et al., 2000, J Immunol 2000; 164(5):2701-2710) on a subjective scale of 0, 1, 2, 3, and 4 corresponding to none, mild, moderate, marked, or severe mucin deposition, respectively. The data were expressed as mean of score recorded by two blinded investigators.
RWPE-specific IgE was measured using a previously described procedure (Wild et al., J Immunol 2000; 164(5):2701-2710). Briefly 96-well plates were coated with 100 ug/ml of RWPE protein overnight. After washing and blocking, diluted sera from the mice treated as above were applied. The plates were incubated with biotin-conjugated […] (clone R35-72; BD Biosciences, San Jose, Calif.) for 2 hours at room temperature, washed and incubated with avidin-conjugated alkaline phosphatase. After washing, fluorometric values for each well were recorded after addition of AttoPhos substrate solution (Promega, Madison, Wis.).

CXCR2 [3] = target: T1, CXCR2; assay: RWPE single-challenge model with CXCR2 inhibitor: BALF cell counts; format: in vivo; settings: WT mice
Experimental: WT mice and Tlr4 KO mice were intranasally challenged with a single dose of 100 μg/60 μl RWPE reconstituted from lyophilized RWPE (Greer Laboratories, Lenoir, N.C.) and killed after 0.5, 1, 4, 16, or 72 hours. In some experiments, to generate superoxide (7, 15), Tlr4 KO mice were intranasally challenged with 0.32 mM xanthine (X) (Sigma-Aldrich, St. Louis, Mo.) with 50 mU xanthine oxidase (XO) (Sigma-Aldrich) in the presence or absence of RWPE. In some experiments, 1 hour before RWPE challenge, WT mice were treated with intranasal administration of 4 mg/kg body weight chemokine (C-X-C motif) receptor 2 (CXCR2) inhibitor SB225002 (Calbiochem, San Diego, Calif.) and challenged with RWPE and killed as described above.
as §1

[4] = 4 mg/kg intranasal before each RWPE dose, vs vehicle

Sequence of IgE (P01854 1-428 isoform P01854-1): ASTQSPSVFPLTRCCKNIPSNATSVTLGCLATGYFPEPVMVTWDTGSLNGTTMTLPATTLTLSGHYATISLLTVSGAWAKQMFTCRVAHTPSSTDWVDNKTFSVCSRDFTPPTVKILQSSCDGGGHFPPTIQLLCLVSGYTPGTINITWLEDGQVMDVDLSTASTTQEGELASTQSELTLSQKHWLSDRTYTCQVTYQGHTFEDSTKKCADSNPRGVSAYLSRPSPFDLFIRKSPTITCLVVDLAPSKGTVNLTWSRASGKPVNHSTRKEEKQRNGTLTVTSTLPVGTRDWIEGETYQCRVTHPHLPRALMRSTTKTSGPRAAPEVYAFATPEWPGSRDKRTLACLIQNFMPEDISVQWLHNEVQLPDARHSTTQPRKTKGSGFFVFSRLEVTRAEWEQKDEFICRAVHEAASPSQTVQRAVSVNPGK

Compound: Omalizumab: marketed drug cited for cat allergen exposure
severity of acute airway obstruction and symptoms caused by exposure to cat allergen (IgE): ameliorates

Compound: Cc1ccc(S(=O)(=O)/C=C/C#N)cc1 [BAY 11-7082]
RWPE challenge-induced neutrophil recruitment into the airways (NF-κB): decreased

RWPE-induced recruitment of superoxide-generating cells (ex vivo superoxide generation of BALF cells) (CXCR2 [1]): blocked
RWPE-induced allergic inflammation (CXCR2 [2]; 4 mg/kg intranasal 1 hour before each RWPE dose, compared with vehicle): attenuated
decrease in BALF eosinophils (CXCR2 [2]; [4]): 50 to 80%
decrease in BALF level of IL-5 (CXCR2 [2]; [4]): 50 to 80%
decrease in BALF level of IL-13 (CXCR2 [2]; [4]): 50 to 80%
decrease in BALF level of IL-33 (CXCR2 [2]; [4]): 50 to 80%
decrease in BALF level of TSLP (CXCR2 [2]; [4]): 50 to 80%
decrease in BALF total inflammatory cells (CXCR2 [2]; [4]): 50 to 80%
decrease in accumulation of mucin in epithelial cells (CXCR2 [2]; [4]): 50 to 80%
decrease in serum RWPE-specific IgE (CXCR2 [2]; [4]): 50 to 80%
suppression of neutrophil recruitment into the lungs (BALF neutrophils) (CXCR2 [3]; 4 mg/kg intranasal 1 hour before RWPE challenge, 16 hours after challenge): 66%
number of other cell types in BALF (CXCR2 [3]; inhibitor before RWPE challenge, data not shown): did not alter
Compound: O=C(Nc1ccc([N+](=O)[O-])cc1O)Nc1ccccc1Br [SB225002]

Source: patent US20160311911A1, “METHODS FOR TREATING ALLERGIC AIRWAY INFLAMMATION” (priority 2015, published 2016)
